Tests used:
adenylate kinase (AdK) [1] = molecular target: T1, adenylate kinase (AdK) (Escherichia coli, UniProt P69441); experiment: isothermal titration calorimetry; assay type: binding
adenylate kinase (AdK) [2] = molecular target: T1, adenylate kinase (AdK); experiment: steady-state enzyme kinetics; assay type: biochemical; settings: cited from earlier work

T1 sequence (P69441 whole entry): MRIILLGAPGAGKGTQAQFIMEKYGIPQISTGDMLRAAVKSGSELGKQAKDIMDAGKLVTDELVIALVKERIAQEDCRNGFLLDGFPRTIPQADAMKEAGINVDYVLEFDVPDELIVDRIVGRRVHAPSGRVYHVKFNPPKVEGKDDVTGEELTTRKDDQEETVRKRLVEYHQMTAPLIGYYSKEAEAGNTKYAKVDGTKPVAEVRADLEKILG

| Kd (adenylate kinase (AdK) [1]) [µM] | Compound | Km (adenylate kinase (AdK) [2]) [µM] |
| --- | --- | --- |
| 9 | Nc1ncnc2c1ncn2[C@@H]1O[C@H](COP(=O)(O)OP(=O)(O)O)[C@@H](O)[C@H]1O [ADP] |  |
|  | Nc1ncnc2c1ncn2[C@@H]1O[C@H](COP(=O)(O)OP(=O)(O)OP(=O)(O)O)[C@@H](O)[C@H]1O [ATP] | 71 |

From publication PMC8297476 (Biochemistry, 2021)
